Experimental data as given in PMC7334220, “Diamond Blackfan anemia is mediated by hyperactive Nemo-like kinase” (Nature Communications, 2020).

Tests used:
[1] = system: NLK phosphorylation at Thr298; assay: SDS-PAGE / pThr298-NLK Western blot after NLK in vitro kinase reaction (rebuttal Experiment 6); format: biochemical, human; settings: Day 7
Method: Experiment 5. Activated p38 and NLK have different kinase specificity for NLK, c- […]
Immunopurification of activated NLK and p38 were incubated in the presence of ATP, Mg2+ and immobilized, dephosphorylated substrates. After 30 mins, the degree of substrate phosphorylation was determined. Of the four substrates examined, NL K wa s the most phosphorylated substrate detected wit h p38. The extent of phosphorylation of the other substrates by p38 was normalized to NLK as substrate , i.e. NLK-100%, c-Myb -79%, Raptor-33%, ST AT 3 -18%. Raptor was the most phosphorylated substrate of NLK. Consequently, phosphorylation of other substrates by NLK is expressed as a percentage of NLK-mediated Raptor phosphorylation, i.e . NLK-37%, c-M yb -80%, […]
Conclusion: W hile p38 and NLK can phosphorylate NLK, c-Myb and Raptor in vitro, we observe different specificities between immunoprecipitated NLK and p38. This would […]
1) W estern blotting analysis or RadioIsotope ivk assay showing increase of NLK autophosphorylation activity (Graph data is not suitable. SDS-PAGE gel data with molecular maker is suitable to show the activity of NLK itself)
Response: We performed the W estern blot analysis as requested. Purified NLK incubated with immunopurified NLK from treated samples, were separated by SDS-PAGE and immunoblotted with pThr298- NLK antibody. […]

p38 phosphorylation = p38 phosphorylation in treated cells (Western blot of pp38); format: cell-based, human; settings: 100nM; rebuttal Experiment 12
[2] = system: RPS19-insufficient cord blood CD34+ HSPCs; assay: In vitro differentiation of cord blood CD34+ HSPCs transduced with shRNA against RPS19 (cell count and flow cytometry); format: cell-based, human; settings: RPS19-insufficient erythroblasts treated at 100nM; rebuttal Experiment 12
Method: Cells were plated at 2000 cell per well in 96-well plates in the presence or absence of doxycycline. Relative amounts of live cells were quantified by luciferase-based Cell titer-Glo® assay. b TGFβR1 inhibitors were assessed for their ability to increase cell expansion in RPS19-insuffiency. As a control, vehicle alone (no doxycycline) is represented at the far left while all other samples were treated with doxycycline to induce RPS19-insufficiency. c Kit^+ erythroid progenitors were grown in the absence of doxycycline and in the presence of 10 µM of indicated compound. In addition, cells were treated with 5 ng/ml of TGFβ1 for 5 days before being subjected to Cell titer-Glo® assay. d Differentiating cord blood CD34^+ progenitors were transduced with shRNA against luciferase or RPS19 and treated with inhibitors at working concentrations for TGFβ inhibition every three days. […] Cells were counted and CD235^+ erythroid (i and iii) and CD11b^+ myeloid cell (ii and iv) percentages were determined by flow cytometry. The number of erythroid or myeloid cells is expressed as a percentage of the number of that lineage with no cytokine or drug treatment. Bars represent means ± SD with individual data points overlaid. n = 3 independent experiments performed in triplicate. Statistics: two-tailed Student’s t test, significant *p < 0.05. Also see Supplementary Fig. 1. Erythroid expansion is depicted in red while myeloid is in purple. Source data are provided as a Source Data file.
Cells were counted and assessed for cell surface expression of CD235. b Lin-Kit^+ hematopoietic progenitors were obtained from three mouse embryos expressing tetracycline-inducible shRNA against RPS19 at day E14.5 or three untreated mice, and thee mature RPL11^+/+ or three mature RPL11^+/lox mice treated with tamoxifen for eight weeks. […] Values were expressed as a percentage relative to untreated controls. c, d Intracellular phosphorylation of NLK at Thr298 was determined by capillary electrophoresis using the Peggy Sue™ Automated Western blotting platform. After lysis, 4 µg of protein from the CD235^+ population was probed against pThr298-NLK and normalized to GAPDH. […] After counting the total cell population, the ratio of CD235^+ erythroblasts was determined by flow cytometry and number of CD235^+ erythroblasts calculated. This was expressed as a percentage of the average number of erythroid cells present in untreated healthy controls. f NLK phosphorylation was assessed by capillary electrophoresis as above. Bars represent means ± SD with individual data points overlaid. […] Statistics: two-tailed Student’s t test, significant *p < 0.05. Also see Supplementary Fig. 8. Source data are provided as a Source Data file.
Primary human CD34^+ hematopoietic stem and progenitor cells were purified from cord or peripheral blood (New York Blood Center) or from human fetal liver tissue (Advanced Bioscience Resources and University of California, Los Angeles Center for AIDS Research) by using magnetic-activated cell sorting (Miltenyi Biotec) and were cryopreserved. Upon thawing, cells were cultured in x-Vivo15 media (Lonza) containing 10% fetal bovine serum, fms-related tyrosine kinase 3 (50 ng/ml), […] (50 ng/ml), interleukin-3 (IL-3; 20 ng/ml), interleukin-6 (IL-6; 20 ng/ml), and stem cell factor (50 ng/ml). When applied, TGFβ1 was added at 5 ng/ml. Kp53A1 cells were obtained from Javier Leon and cultured in DMEM supplemented with 10% fetal bovine serum at 37 or 32 °C.

c-Myb = c-Myb expression and phosphorylation in Kp53A1 cells switched to 32 °C (Western blot); format: cell-based; settings: pretreated 30 min, 37 to 32 °C for 0, 16, 48 h, Fig. 7d
Method: (§1) Bars represent means ± SD with individual data points overlaid. n = 3 independent experiments performed in triplicate. […] Source data are provided as a Source Data file.
Inhibitors were added to cells at indicated concentrations with a final DMSO concentration of 0.5%. […] IC50 calculations were obtained using 8–9 concentrations of compound and generated using the IC50 Calculator software by AAT Bioquest®. NLK, p38, or ALK5 for in vitro kinase assays were immunopurified from Kp53A1 cells. NLK activation was induced by incubating cells at 32° for 24-48 h, p38 by stimulating with IL-3, IL-6, SCF, and Epo at the same concentrations used for differentiating erythroid progenitors.

NLK dimerization and p53 [3] = assay: YFP-/CFP-NLK FRET (NLK dimerization) and p53 flow cytometry in cord blood CD34+ HSPCs; format: cell-based, human; settings: d
Excerpt: Ribosome-insufficiency induces stabilization of p53 protein and contributes to DBA pathogenesis[27],[57]–[59]. […] To further examine the role of p53 in NLK activation in our model and DBA patient samples, we utilized Nutlin-3. Nutlin-3 inhibits the E3 ubiquitin ligase MDM2 binding of p53 and subsequently stabilizes p53 from ubiquitin-dependent degradation. NLK dimerizes upon activation[46] and the detection of FRET from dimerized YFP- and CFP-NLK pairs correlates with NLK activity in RPS19-insufficiency (Fig. 3d). […] We gated p53 expression into p53^low in which 6.6% of cells activate NLK, and p53^hi where 91.9% of cells activate NLK (Fig. 6b.ii). RPS19-insufficiency increased the p53^hi population from 8.1 to 34.1%, corresponding to an increase from 9.0 to 36.1% of cells with elevated NLK-dimerization (Fig. 6b.iii).
Fig. 6 NLK is activated in early erythroid progenitors and requires P53 stabilization in RPS19-insufficiency. a Cord blood CD34^+ progenitors were transduced with lentivirus expressing shRNA against luciferase (shLuc) or RPS19 (shRPS19) co-expressing GFP. Cells were also transduced with or without shRNA against p53 co-expressing mCherry. […] Cells were stained for p53 and both p53 and FRET was measured by flow cytometry. […] Bone marrow mononuclear cells from three DBA patients were pooled and analyzed simultaneously (iii). d Documentation of the percentage of cells with dimerizing NLK in p53^hi and p53^low is tabulated and can be compared with NLK in vitro kinase activity. e—green Samples were gated to include non-erythroid CD71^-CD235^- populations, MEP- and BFU-E-enriched CD71^lowCD235^- populations, CFU-E-enriched CD71^hiCD235^- populations and proerythroblast and intermediate erythroblast CD71^hiCD235^+ populations. […]

NLK dimerization and p53 [4] = assay: YFP-/CFP-NLK FRET (NLK dimerization) and p53 flow cytometry in healthy bone marrow mononuclear cells; format: cell-based, human; settings: Nutlin-3 24 h, control 6.6%, Fig. 6c, d
Excerpt: as §1

[5] = 3 days with Nutlin-3, Fig. 6b.ii

## CNC(=O)c1ccc(C)c(-n2c(C)cc(OCc3ccc(F)cc3F)c(Br)c2=O)c1 [PH797804]
[1]
  phosphorylation of NLK at Thr298 by NLK immunopurified from treated RPS19-insufficient cells: not suppressed
p38 phosphorylation
  inhibition of p38: inhibited
[2]
  increase in erythropoiesis in RPS19-insufficiency: no increase

## C[C@@H]1CN(Cc2ccc(F)cc2)[C@@H](C)CN1C(=O)c1cc2c(C(=O)C(=O)N(C)C)cn(C)c2cc1Cl [SCIO-469]
p38 phosphorylation
  inhibition of p38: inhibited
[2]
  increase in erythropoiesis in RPS19-insufficiency: no increase

## CC(=O)N[C@@H](CSC(=O)[C@]1([C@@H](O)C(C)C)NC(=O)[C@H](C)[C@@H]1O)C(=O)O [lactacystin]
c-Myb
  expression and phosphorylation of c-Myb after NLK activation: sustained out to 48 h

## COc1ccc(C2=N[C@@H](c3ccc(Cl)cc3)[C@@H](c3ccc(Cl)cc3)N2C(=O)N2CCNC(=O)C2)c(OC(C)C)c1 [Nutlin-3]
NLK dimerization and p53 [3]; [5]
  % FREThi in P53hi: 91.9%
  % FREThi in P53low: 6.6%
NLK dimerization and p53 [3]; shLuc, 3 days with Nutlin-3, control 9.0%, Fig. 6b
  % FREThi (cells with NLK dimerization): 50.2%
NLK dimerization and p53 [4]
  % P53hi: 31.7%
